# Assay results reported in US8110586B2, “8-aza-bicyclo[3.2.1]octane derivatives and their use as monoamine neurotransmitter re-uptake inhibitors” (Neurosearch A/S, priority 2006, dated 2012).
# Counter-ions that a name gives are not always drawn.
# Tests used:
# [1] = molecular target: T1, reuptake of serotonine (5-HT) in synaptosomes (Rattus norvegicus, UniProt P31652); assay: Inhibition of serotonin reuptake in synaptosomes; assay type: biochemical
# T1 construct: in synaptosomes as described in WO 97/16451; from tissue
# T1 sequence (P31652 whole entry): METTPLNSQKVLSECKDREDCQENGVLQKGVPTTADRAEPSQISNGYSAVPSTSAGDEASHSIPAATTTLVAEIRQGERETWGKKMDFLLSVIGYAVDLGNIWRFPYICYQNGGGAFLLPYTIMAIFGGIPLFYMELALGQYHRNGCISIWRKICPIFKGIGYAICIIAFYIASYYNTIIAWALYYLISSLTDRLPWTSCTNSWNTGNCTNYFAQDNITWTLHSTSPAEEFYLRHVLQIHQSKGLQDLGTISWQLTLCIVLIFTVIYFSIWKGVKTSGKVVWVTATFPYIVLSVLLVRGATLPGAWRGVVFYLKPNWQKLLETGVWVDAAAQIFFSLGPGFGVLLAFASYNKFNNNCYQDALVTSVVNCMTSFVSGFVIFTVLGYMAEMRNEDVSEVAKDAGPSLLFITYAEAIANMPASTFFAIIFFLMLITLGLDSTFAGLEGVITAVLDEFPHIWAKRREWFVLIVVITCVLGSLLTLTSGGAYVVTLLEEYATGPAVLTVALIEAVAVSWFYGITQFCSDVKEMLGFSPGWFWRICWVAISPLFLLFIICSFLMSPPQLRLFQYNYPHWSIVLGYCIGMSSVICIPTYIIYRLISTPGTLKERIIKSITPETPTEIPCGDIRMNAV
# Protocol: A number of compounds were tested for their ability to inhibit the reuptake of the monoamine neurotransmitters dopamine (DA) noradrenaline (NA) and serotonine (5-HT) in synaptosomes as described in WO 97/16451.
# The test values are given as IC50 (the concentration (μM) of the test substance which inhibits the specific binding of ^3H-DA, ^3H-NA, or ^3H-5-HT by 50%).
# [2] = molecular target: T2, reuptake of dopamine (DA) in synaptosomes (Rattus norvegicus, UniProt P23977); assay: Inhibition of dopamine reuptake in synaptosomes; assay type: biochemical; settings: 3H-DA, read-out: DA-uptake IC50
# T2 construct: in synaptosomes as described in WO 97/16451; from tissue
# T2 sequence (P23977 whole entry): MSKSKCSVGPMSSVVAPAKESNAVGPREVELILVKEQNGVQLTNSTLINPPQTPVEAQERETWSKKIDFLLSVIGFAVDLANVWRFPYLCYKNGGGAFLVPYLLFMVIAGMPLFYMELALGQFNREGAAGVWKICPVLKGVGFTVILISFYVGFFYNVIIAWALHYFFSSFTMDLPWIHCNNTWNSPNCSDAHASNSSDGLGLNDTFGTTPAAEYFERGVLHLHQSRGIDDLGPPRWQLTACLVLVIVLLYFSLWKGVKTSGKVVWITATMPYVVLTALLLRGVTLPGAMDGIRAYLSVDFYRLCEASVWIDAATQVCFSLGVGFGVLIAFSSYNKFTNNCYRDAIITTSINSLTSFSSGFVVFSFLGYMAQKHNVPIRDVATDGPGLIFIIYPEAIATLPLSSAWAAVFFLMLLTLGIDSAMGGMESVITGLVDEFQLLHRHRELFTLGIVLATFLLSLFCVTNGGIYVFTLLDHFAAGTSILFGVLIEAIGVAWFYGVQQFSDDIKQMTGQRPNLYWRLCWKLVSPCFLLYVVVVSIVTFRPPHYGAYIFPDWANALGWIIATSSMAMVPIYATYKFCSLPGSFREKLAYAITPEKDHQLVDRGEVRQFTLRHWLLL
SMILES,melting point,IC50 [1],IC50 [2]
"COc1ccc2cc(OC3CC4CCC(C3)N4)ccc2c1 (stereo not drawn) (as salt: hydrochloric acid salt) [First compound of Example A, exo-3-(6-Methoxy-naphthalen-2-yloxy)-8-aza-bicyclo[3.2.1]octane]",237 to 239 °C,–,–
"COc1ccc2ccc(OC3CC4CCC(C3)N4)cc2c1 (stereo not drawn) (as salt: hydrochloric acid salt) [Last compound of Example A, exo-3-(7-Methoxy-naphthalen-2-yloxy)-8-aza-bicyclo[3.2.1]octane]",225 °C,–,–
"COc1ccc2cc(OC3CC4CCC(C3)N4)ccc2c1 (stereo not drawn) [First compound of Example A, exo-3-(6-Methoxy-naphthalen-2-yloxy)-8-aza-bicyclo[3.2.1]octane]",–,0.026 µM,0.42 µM
"COc1ccc2ccc(OC3CC4CCC(C3)N4)cc2c1 (stereo not drawn) [Last compound of Example A, exo-3-(7-Methoxy-naphthalen-2-yloxy)-8-aza-bicyclo[3.2.1]octane]",–,0.00042 µM,1.4 µM
